Read-outs that look alike come from different tables or passages of the source.
Columns and labels:
[1] = pH ˜1.5; cited from earlier work
[2] = Moisture balance (moisture sorption-desorption analysis); assay type: physicochemical; settings: for post-MB XRPD form: after moisture balance
Source text: FIG. 6. Moisture sorption-desorption analysis of metaxalone Form A. FIG. 10. Moisture sorption-desorption analysis of metaxalone Form B.

[3] = Storage stability of solid amorphous metaxalone; assay type: physicochemical
Method: A glass vial containing metaxalone Form A was placed in a silicon oil bath at 155° C. Once the solids had melted, the vial was quickly cooled in a dry ice/acetone bath (about −78° C.). Glassy solids resulted.

Row | SMILES | solubility at low pH [1] | MB (moisture balance) result [2] | post-MB XRPD form [2] | stability against conversion to a crystalline form when stored [3] | stability against conversion to a crystalline form when stored ([3]; listed as solid amorphous metaxalone)
1 | Cc1cc(C)cc(OCC2CNC(=O)O2)c1 (stereo not shown) [Crystalline metaxalone, 5-(3′,5′-dimethylphenoxy)methyl-2-oxazolidinone] | insoluble | – | – | – | –
2 | Cc1cc(C)cc(OCC2CNC(=O)O2)c1 (stereo not shown) [Metaxalone Form A, 5-(3′,5′-dimethylphenoxy)methyl-2-oxazolidinone] | – | nonhygroscopic solid | Form A | – | –
3 | Cc1cc(C)cc(OCC2CNC(=O)O2)c1 (stereo not shown) [Metaxalone Form B, 5-(3′,5′-dimethylphenoxy)methyl-2-oxazolidinone] | – | non-hygroscopic | Form B | – | –
4 | Cc1cc(C)cc(OCC2CNC(=O)O2)c1 (stereo not shown) [Solid Amorphous Metaxalone, 5-(3′,5′-dimethylphenoxy)methyl-2-oxazolidinone] | – | – | – | produce crystalline material | not stable
